In patent US20080138462A1, “Lactobacillus buchneri strain LN5665 and its use to improve aerobic stability of silage” (Pioneer Hi-Bred International, Inc., priority 2006, published 2008):

Test: Aerobic stability of grass silage (PVC silos, method of Honig)
Set-up: species or system ryegrass
Procedure: Second cut ryegrass was harvested at PLNC. The grass was determined to have an approximate dry matter of 35%.
Inoculation: Individual strains were supplied as fresh grown overnight culture. Cultures were adjusted to a standard concentration of 5.0×10^7 CFU/mL and applied using a syringe at a rate of 2.2 mL/kg of forage. The application rate for all strains was 1.1×10^5 CFU/g forage. Propionic acid (88%) was applied at a rate of 4.4 mL/kg fresh forage.
PVC Silos: PVC silos were filled at a packing density of 0.288 kg DM/silo (100 kg DM/m^3); approximately 0.82-0.95 kg/silo. Silos were air infused for 24 hours on days 28 and 42, and opened after 50-60 days of ensiling.
Aerobic Stability: The method of Honig (Proc. Of the Eurobac. Conf., P. Lingvall and S. Lindgren (ed.) (12-16 Aug. 1986) Swed. Univ. of Agric. Sci. Grass and Forage Report No. 3-1990. Pp. 76-81. Uppsala, Sweden.) was used for measuring aerobic stability (see Table 1). ROT is defined as the time, in hours, for the silage to heat 1.7° C. after exposure to air. Cumm_DD is the integral value of the area between the time ROT is attained and the end of the experiment. Aerobic dry matter loss (% dry matter) was determined relating the increase in temperature and the time to energy losses occurring in the silage.

CCC(=O)O [Propionic Acid, Propionic acid]
Aerobic deterioration compared with control grass silages: significantly less aerobic deterioration
